Measured values reported in patent US9682940B2, “Indazole derivatives useful as CB-1 inverse agonists” (Janssen Pharmaceutica NV, priority 2015, dated 2017).

Tests used:
[1] = molecular target: Human CB2R (Cannabanoid receptor 2) (Homo sapiens (Human), UniProt P34972); experiment: CB-2 in vitro cAMP (HTRF) assay in HEK-293 cells; type: cell-based; conditions: HEK-293 cells stably transfected with human CB2R, 250 nM Forskolin, mean where tested more than once, read-out: CB-2 (HEK_cAMP) EC50
Summary of the method: (§1)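 HEK-293 cells stably expressing human CB1 or CB2 plated overnight, then tested in HBSS/5 mM HEPES/0.1% BSA with 0.5 mM IBMX and forskolin (1.5 μM working dilution). Intracellular cAMP quantified by competitive HTRF immunoassay (d2-cAMP, cryptate anti-cAMP) against a cAMP standard curve; compounds as 1/3 serial dilutions from 10 mM DMSO stocks.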

[2] = molecular target: Human CB1R (Cannabanoid receptor 1) (Homo sapiens (Human), UniProt P21554); experiment: CB-1 in vitro cAMP (HTRF) assay in HEK-293 cells; type: cell-based; conditions: HEK-293 cells stably transfected with human CB1R, 250 nM Forskolin, mean where tested more than once, read-out: CB-1 (HEK_cAMP) EC50
Sequence of Human CB1R (Cannabanoid receptor 1) (P21554 whole entry): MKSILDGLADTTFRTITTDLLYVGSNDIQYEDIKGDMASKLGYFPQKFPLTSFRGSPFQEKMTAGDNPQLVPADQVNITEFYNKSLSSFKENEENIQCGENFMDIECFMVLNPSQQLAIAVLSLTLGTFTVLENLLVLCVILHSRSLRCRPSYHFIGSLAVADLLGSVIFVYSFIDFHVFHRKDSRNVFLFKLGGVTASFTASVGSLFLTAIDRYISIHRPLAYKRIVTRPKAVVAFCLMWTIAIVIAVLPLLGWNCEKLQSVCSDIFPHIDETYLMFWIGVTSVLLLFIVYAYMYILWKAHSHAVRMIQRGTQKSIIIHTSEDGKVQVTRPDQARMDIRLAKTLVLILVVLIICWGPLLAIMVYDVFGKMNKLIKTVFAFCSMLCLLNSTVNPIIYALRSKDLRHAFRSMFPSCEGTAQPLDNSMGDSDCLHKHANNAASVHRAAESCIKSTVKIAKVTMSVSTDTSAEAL
Summary of the method: as §1

Sequence of Human CB2R (Cannabanoid receptor 2) (P34972 whole entry): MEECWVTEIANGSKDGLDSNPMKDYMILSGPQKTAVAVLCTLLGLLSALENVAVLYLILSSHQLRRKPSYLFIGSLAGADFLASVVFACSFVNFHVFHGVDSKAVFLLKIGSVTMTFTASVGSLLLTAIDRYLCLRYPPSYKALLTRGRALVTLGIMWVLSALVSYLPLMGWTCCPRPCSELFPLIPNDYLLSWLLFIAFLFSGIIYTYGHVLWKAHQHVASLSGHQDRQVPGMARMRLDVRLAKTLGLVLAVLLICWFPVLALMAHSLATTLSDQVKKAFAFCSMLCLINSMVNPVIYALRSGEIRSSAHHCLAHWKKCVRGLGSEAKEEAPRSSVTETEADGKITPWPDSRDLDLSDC

| EC50 [1] [nM] | EC50 [2] [nM] | SMILES |
| --- | --- | --- |
| > 10000 | 37 | O=C(NCCO)c1ccc(-n2nc(C3CCN(S(=O)(=O)C(F)(F)F)CC3)c3cc(C(c4ccc(Cl)cc4)c4ccc(Cl)cc4)ccc32)cc1 [Compound 229] |
| > 10000 | 3260 | O=C(O)CCNC(=O)c1ccc(-n2nc(C3CCN(S(=O)(=O)C(F)(F)F)CC3)c3cc(C(c4ccc(Cl)cc4)c4ccc(Cl)cc4)ccc32)cc1 [Compound 230] |
| > 10000 | 4200 | O=C(O)c1ccc([C@H](c2ccc(Cl)cc2)c2ccc3[nH]nc(C4CCN(S(=O)(=O)C(F)(F)F)CC4)c3c2)cc1 [Compound 231] |
| > 10000 | 3550 | O=C(O)c1ccc([C@H](c2ccc(Cl)cc2)c2ccc3[nH]nc(N4CCN(S(=O)(=O)C(F)(F)F)CC4)c3c2)cc1 [Compound 233] |
| > 10000 | 22 | NC(=O)c1csc(CS(=O)(=O)N2CCC(c3nn(C4CC4)c4ccc(C(c5ccc(Cl)cc5)c5ccc(Cl)cc5)cc34)CC2)c1 [Compound 235] |
| > 10000 | 68 | O=C(O)c1ccc(CS(=O)(=O)N2CCC(c3nn(C4CC4)c4ccc(C(c5ccc(Cl)cc5)c5ccc(Cl)cc5)cc34)CC2)s1 [Compound 236] |
| > 10000 | 1630 | O=C(O)c1ccc(C(c2ccc(Cl)cc2)c2ccc3[nH]nc(C4CCN(S(=O)(=O)C(F)(F)F)CC4)c3c2)cn1 (centres unmarked) [Compound 241] |
| 6930 | 11 | NC(=O)c1ccc(C(c2ccc(Cl)cc2)c2ccc3[nH]nc(C4CCN(S(=O)(=O)C(F)(F)F)CC4)c3c2)cn1 (centres unmarked) [Compound 253] |
| > 42000 | 25 | COC(=O)c1ccc(S(=O)(=O)N2CCC(c3n[nH]c4ccc(C(c5ccc(Cl)cc5)c5ccc(Cl)cc5)cc34)CC2)o1 [Compound 260] |
| 6820 | 271 | O=C(O)c1ccc(S(=O)(=O)N2CCC(c3n[nH]c4ccc(C(c5ccc(Cl)cc5)c5ccc(Cl)cc5)cc34)CC2)s1 [Compound 261] |
| > 10000 | 672 | O=C(NCc1ccccc1)N1CCC(c2n[nH]c3ccc(C(c4ccc(Cl)cc4)c4ccc(Cl)cc4)cc23)CC1 [Compound 262] |
| 2330 | 234 | O=C(NC1CCCC1)N1CCC(c2n[nH]c3ccc(C(c4ccc(Cl)cc4)c4ccc(Cl)cc4)cc23)CC1 [Compound 263] |
| 4270 | 199 | CCNC(=O)N1CCC(c2n[nH]c3ccc(C(c4ccc(Cl)cc4)c4ccc(Cl)cc4)cc23)CC1 [Compound 264] |
| > 10000 | 208 | O=C(OCc1ccccc1)N1CCC(c2n[nH]c3ccc(C(c4ccc(Cl)cc4)c4ccc(Cl)cc4)cc23)CC1 [Compound 265] |
| > 2000 | 79 | O=C(Oc1ccccc1)N1CCC(c2n[nH]c3ccc(C(c4ccc(Cl)cc4)c4ccc(Cl)cc4)cc23)CC1 [Compound 267] |
| 12400 | 32 | CCOC(=O)N1CCC(c2n[nH]c3ccc(C(c4ccc(Cl)cc4)c4ccc(Cl)cc4)cc23)CC1 [Compound 268] |
| > 10000 | 590 | O=C(O)c1ccc(S(=O)(=O)N2CCC(c3n[nH]c4ccc(C(c5ccc(Cl)cc5)c5ccc(Cl)cc5)cc34)C2)cc1 (centres unmarked) [Compound 269] |
| > 10000 | 9600 | O=C(O)c1ccc(S(=O)(=O)N2CCC(c3n[nH]c4ccc(C(c5ccc(Cl)cc5)c5ccc(Cl)cc5)cc34)C2)o1 (centres unmarked) [Compound 270] |
| > 10000 | 40 | O=C(OC1CCCC1)N1CCC(c2n[nH]c3ccc(C(c4ccc(Cl)cc4)c4ccc(Cl)cc4)cc23)CC1 [Compound 271] |
| > 10000 | 333 | O=C(O)c1cccc(CN2CCC(c3n[nH]c4ccc(C(c5ccc(Cl)cc5)c5ccc(Cl)cc5)cc34)C2)c1 (centres unmarked) [Compound 272] |
| > 10000 | 6800 | O=C(O)c1cccc(S(=O)(=O)N2CCC(c3n[nH]c4ccc(C(c5ccc(Cl)cc5)c5ccc(Cl)cc5)cc34)C2)c1 (centres unmarked) [Compound 273] |

The next lines start with the compound.

| SMILES | EC50 [1] [nM] | EC50 [2] [nM] |
| --- | --- | --- |
| O=C(O)c1csc(CN2CCC(c3nn(C4CC4)c4ccc(C(c5ccc(Cl)cc5)c5ccc(Cl)cc5)cc34)CC2)c1 [Compound 227] | > 10000 | 84 |
| O=C(O)c1ccc(CN2CCC(c3c4cc(C(c5ccc(Cl)cc5)c5ccc(Cl)cc5)ccc4nn3C3CC3)CC2)o1 [Compound 228, 5-((4-(5-(bis(4-chlorophenyl)methyl)-2-cyclopropyl-2H-indazol-3-yl)piperidin-1-yl)methyl)furan-2-carboxylic acid] | > 10000 | 20 |
| NC(=O)c1csc(CN2CCC(c3c4cc(C(c5ccc(Cl)cc5)c5ccc(Cl)cc5)ccc4nn3C3CC3)CC2)c1 [Compound 237, 5-((4-(5-(bis(4-chlorophenyl)methyl)-2-cyclopropyl-2H-indazol-3-yl)piperidin-1-yl)methyl)thiophene-3-carboxamide] | > 10000 | 5 |
| O=C(O)c1ccc(C(c2ccc(Cl)cc2)c2ccc3nn(C4CC4)c(C4CCN(S(=O)(=O)C(F)(F)F)CC4)c3c2)cc1 (centres unmarked) [Compound 238, 4-[(4-chlorophenyl) ([2-cyclopropyl-3-[1-(trifluoromethane)sulfonylpiperidin-4-yl]-2H-indazol-5-yl])methyl]benzoic acid] | > 10000 | 198 |
| O=C(O)c1csc(CN2CCC(c3c4cc(C(c5ccc(Cl)cc5)c5ccc(Cl)cc5)ccc4nn3C3CC3)CC2)c1 [Compound 239, 5-((4-(5-(bis(4-chlorophenyl)methyl)-2-cyclopropyl-2H-indazol-3-yl)piperidin-1-yl)methyl)thiophene-3-carboxylic acid] | > 10000 | 43 |
| O=C(O)c1ccc(CN2CCC(c3c4cc(C(c5ccc(Cl)cc5)c5ccc(Cl)cc5)ccc4nn3C3CC3)CC2)s1 [Compound 242, 5-((4-(5-(bis(4-chlorophenyl)methyl)-2-cyclopropyl-2H-indazol-3-yl)piperidin-1-yl)methyl)thiophene-2-carboxylic acid] | > 10000 | 16 |
| O=C(O)c1cccc(CN2CCC(c3nn(C4CC4)c4ccc(C(c5ccc(F)cc5)c5ccc(F)cc5)cc34)CC2)c1 [Compound 243] | > 10000 | 285 |
| Cc1ccc(C(c2ccc(C)cc2)c2ccc3c(c2)c(C2CCN(Cc4cccc(C(=O)O)c4)CC2)nn3C2CC2)cc1 [Compound 244] | > 10000 | 48 |
| O=C(O)c1cccc(CN2CCC(c3nn(C4CC4)c4ccc(C(c5ccccc5)c5ccc(Cl)cc5)cc34)CC2)c1 (centres unmarked) [Compound 245] | > 10000 | 20 |
| O=C(O)c1cccc(CN2CCC(c3nn(C4CC4)c4ccc(C(c5ccc(F)cc5)c5ccc(Cl)cc5)cc34)CC2)c1 (centres unmarked) [Compound 246] | > 10000 | 29 |
| Cc1ccc(C(c2ccc(Cl)cc2)c2ccc3c(c2)c(C2CCN(Cc4cccc(C(=O)O)c4)CC2)nn3C2CC2)cc1 (centres unmarked) [Compound 247] | > 10000 | 20 |
| O=C(O)c1cccc(CN2CCC(c3nn(C4CC4)c4ccc(C(c5ccc(Cl)cc5)c5ccc(C(F)(F)F)cc5)cc34)CC2)c1 (centres unmarked) [Compound 248] | > 10000 | 41 |
| NC(=O)c1ccc(C(c2ccc(Cl)cc2)c2ccc3nn(C4CC4)c(C4CCN(S(=O)(=O)C(F)(F)F)CC4)c3c2)cc1 (centres unmarked) [Compound 249, 4-((4-chlorophenyl)(2-cyclopropyl-3-(1-(trifluoromethylsulfonyl)piperidin-4-yl)-2H-indazol-5-yl)methyl)benzamide] | > 10000 | 15 |
| O=C(O)c1ccc(CN2CCC(c3nn(C4CC4)c4ccc(C(c5ccc(Cl)cc5)c5ccc(Cl)cc5)cc34)CC2)o1 [Compound 250] | > 10000 | 43 |
| O=C(O)c1cccc(CN2CCC(c3c4cc(C(c5ccc(Cl)cc5)c5ccc(Cl)cc5)ccc4nn3C3CC3)CC2)n1 [Compound 251, 6-((4-(5-(bis(4-chlorophenyl)methyl)-2-cyclopropyl-2H-indazol-3-yl)piperidin-1-yl)methyl)picolinic acid] | > 10000 | 14 |
| O=C(O)c1ccc(CN2CCC(c3c4cc(C(c5ccc(Cl)cc5)c5ccc(Cl)cc5)ccc4nn3C3CC3)CC2)nc1 [Compound 252] | > 10000 | 77 |
| O=C(O)c1ccc(CN2CCC(c3nn(C4CC4)c4ccc(C(c5ccc(Cl)cc5)c5ccc(Cl)cc5)cc34)CC2)s1 [Compound 254] | > 10000 | 16 |
| O=C(O)c1cncc(CN2CCC(c3c4cc(C(c5ccc(Cl)cc5)c5ccc(Cl)cc5)ccc4nn3C3CC3)CC2)c1 [Compound 255, 5-((4-(5-(bis(4-chlorophenyl)methyl)-2-cyclopropyl-2H-indazol-3-yl)piperidin-1-yl)methyl)nicotinic acid] | > 10000 | 34 |
| O=C(O)c1ccc(CN2CCC(c3c4cc(C(c5ccc(Cl)cc5)c5ccc(Cl)cc5)ccc4nn3C3CC3)CC2)cc1 [Compound 256, 4-((4-(5-(bis(4-chlorophenyl)methyl)-2-cyclopropyl-2H-indazol-3-yl)piperidin-1-yl)methyl)benzoic acid] | > 10000 | 30 |
| O=C(O)c1cccc(CN2CCC(c3c4cc(C(c5ccc(Cl)cc5)c5ccc(Cl)cc5)ccc4nn3C3CC3)CC2)c1 [Compound 257, 3-((4-(5-(bis(4-chlorophenyl)methyl)-2-cyclopropyl-2H-indazol-3-yl)piperidin-1-yl)methyl)benzoic acid] | > 5000 | 13 |
| COC(=O)c1ccc(CN2CCC(c3n[nH]c4ccc(C(c5ccc(Cl)cc5)c5ccc(Cl)cc5)cc34)CC2)cc1 [Compound 258] | > 42000 | 428 |
| COC(=O)c1cccc(CN2CCC(c3n[nH]c4ccc(C(c5ccc(Cl)cc5)c5ccc(Cl)cc5)cc34)CC2)c1 [Compound 259] | > 42000 | 374 |
